Measured values: ChEMBL document CHEMBL4699661, “Synthesis and Biological Characterization of Cyclic Disulfide-Containing Peptide Analogs of the Multifunctional Opioid/Neuropeptide FF Receptor Agonists That Produce Long-Lasting and Nontolerant Antinociception” (J Med Chem, 2020)
Calls of active or inactive are those of the source. The calls are words filed in the database; no cut-off is given here. Non-standard residues stand in square brackets, D forms with d. Residues, ends and D or L forms follow the SMILES beside them.

Assays:
[1] = biological target: Kappa-type opioid receptor (Homo sapiens, UniProt P41145); test: Agonist activity at kappa opioid receptor (unknown origin) expressed in HEK293-A cells assessed as inhibition of forskolin-stimulated cAMP accumulation incubated for 30 mins by competition PKA binding assay; assay type: functional, cell-based
Mus musculus [2] = test: Analgesic activity in sc dosed Kunming mouse by radiant heat tail flick test; assay type: functional
Mus musculus [3] = test: Analgesic activity in Kunming mouse assessed as increase in antinociceptive effect at 0.03 pmol, icv pre-treated with 10 nmol, icv NPFF receptor antagonist RF9 by radiant heat tail flick test; assay type: functional, organism-based
Mu-type opioid receptor = Mu-type opioid receptor (Homo sapiens, UniProt P35372); test: Agonist activity at mu opioid receptor (unknown origin) expressed in HEK293-A cells assessed as inhibition of forskolin-stimulated cAMP accumulation incubated for 30 mins by competition PKA binding assay; assay type: functional, cell-based
[4] = biological target: T1, Delta-type opioid receptor (Homo sapiens, UniProt P41143); test: Agonist activity at delta opioid receptor (unknown origin) expressed in HEK293-A cells assessed as inhibition of forskolin-stimulated cAMP accumulation incubated for 30 mins by competition PKA binding assay relative to control; assay type: functional, cell-based
[5] = biological target: T2, Neuropeptide FF receptor 2 (Homo sapiens, UniProt Q9Y5X5); test: Agonist activity at NPFFR2 (unknown origin) expressed in HEK293-A cells assessed as inhibition of forskolin-stimulated cAMP accumulation incubated for 30 mins by competition PKA binding assay relative to control; assay type: functional, cell-based; conditions: filed as agonist
[6] = Half life in 100% mouse plasma at 0.01 mM by RP-HPLC analysis; assay type: ADME, cell-free
[7] = biological target: T3, Neuropeptide FF receptor 1 (Homo sapiens, UniProt Q9GZQ6); test: Agonist activity at NPFFR1 (unknown origin) expressed in HEK293-A cells assessed as inhibition of forskolin-stimulated cAMP accumulation incubated for 30 mins by competition PKA binding assay relative to control; assay type: functional, cell-based; conditions: filed as agonist
[8] = biological target: T3, Neuropeptide FF receptor 1; test: Agonist activity at NPFFR1 (unknown origin) expressed in HEK293-A cells assessed as inhibition of forskolin-stimulated cAMP accumulation incubated for 30 mins by competition PKA binding assay; assay type: functional, cell-based
Mus musculus [9] = test: Analgesic activity in sc dosed Kunming mouse assessed as time duration during which antinociception lasted by radiant heat tail flick test; assay type: functional
Mus musculus [10] = test: Analgesic activity in icv dosed Kunming mouse by radiant heat tail flick test; assay type: functional
Mus musculus [11] = test: Analgesic activity in sc dosed Kunming mouse pre-treated with 1 mg/kg, sc opioid receptor antagonist naloxone by radiant heat tail flick test; assay type: functional, organism-based
Mus musculus [12] = test: Analgesic activity in sc dosed Kunming mouse pre-treated with 1 mg/kg, sc peripherally restricted opioid receptor antagonist naloxone methiodide by radiant heat tail flick test; assay type: functional, organism-based
[13] = biological target: T1, Delta-type opioid receptor; test: Agonist activity at delta opioid receptor (unknown origin) expressed in HEK293-A cells assessed as inhibition of forskolin-stimulated cAMP accumulation incubated for 30 mins by competition PKA binding assay; assay type: functional, cell-based
Mus musculus [14] = test: Analgesic activity in sc dosed Kunming mouse pre-treated with 5 nmol, icv peripherally restricted opioid receptor antagonist naloxone methiodide by radiant heat tail flick test; assay type: functional, organism-based
Mus musculus [15] = test: Analgesic activity in icv dosed Kunming mouse assessed as time duration during which supraspinal antinociception lasted by radiant heat tail flick test; assay type: functional
Mus musculus [16] = test: Analgesic activity in sc dosed Kunming mouse dosed once daily for 8 consecutive days by radiant heat tail flick test; assay type: functional, organism-based; conditions: time 8.0 day
[17] = biological target: T2, Neuropeptide FF receptor 2; test: Agonist activity at NPFFR2 (unknown origin) expressed in HEK293-A cells assessed as inhibition of forskolin-stimulated cAMP accumulation incubated for 30 mins by competition PKA binding assay; assay type: functional, cell-based
[18] = Half life in 15% mouse brain at 0.01 mM by RP-HPLC analysis; assay type: ADME, tissue-based
Mus musculus [19] = test: Analgesic activity in icv dosed Kunming mouse dosed once daily for 8 consecutive days by radiant heat tail flick test; assay type: functional, organism-based; conditions: time 8.0 day
[20] = Ratio of drug level in brain to plasma in mouse; assay type: ADME; conditions: read-out: BPR
[21] = Induction of constipation in sc dosed Kunming mouse assessed as inhibition of gastrointestinal motility by charcoal based gastrointestinal motility test; assay type: organism-based; conditions: in vivo
[22] = Toxicity in Kunming mouse assessed as activation of reward circuits at 0.09 umol/kg, sc by CPP test; assay type: organism-based; conditions: in vivo, dose 0.09 µmol/kg
[23] = Toxicity in Kunming mouse assessed as increase in total travelled distance at 0.09 umol/kg, sc by open field assay; assay type: organism-based; conditions: in vivo, dose 0.09 µmol/kg
[24] = Toxicity in Kunming mouse assessed as increase in jumping counts after naloxone-injection at 0.09 umol/kg, sc by naloxone-precipitated withdrawal test; assay type: organism-based; conditions: in vivo, dose 0.09 µmol/kg
[25] = Toxicity in Kunming mouse assessed as effect on motor coordination at 30 pmol, icv by rotarod test; conditions: in vivo, icv_or_intrathecal
Mus musculus [26] = test: Analgesic activity in Kunming mouse at 0.09 umol/kg, sc by radiant heat tail flick test; assay type: functional; conditions: dose 0.09 µmol/kg
Mus musculus [27] = test: Analgesic activity in Kunming mouse at 30 pmol, icv by radiant heat tail flick test; assay type: functional
[28] = Toxicity in Kunming mouse assessed as effect on motor coordination at 0.09 umol/kg, sc by rotarod test; assay type: organism-based; conditions: in vivo, dose 0.09 µmol/kg
[29] = Safety index, ratio of ED50 for induction of constipation in sc dosed Kunming mouse to ED50 for analgesic activity in sc dosed Kunming mouse; assay type: organism-based; conditions: in vivo, read-out: Ratio ED50

SMILES | EC50 ([1]; read-out: EC50) [nM] | ED50 (Mus musculus [2]) [µmol/kg] | Activity (Mus musculus [3]) | EC50 (Mu-type opioid receptor) [nM] | Emax ([4]; filed as agonist) [%] | Emax [5] [%] | half-life at 10 µM [6] [min] | Emax [7] [%] | EC50 [8] [nM] | Time (Mus musculus [9]) [h] | ED50 (Mus musculus [10]) [pmol] | EC50 [13] [nM] | Time (Mus musculus [15]) [h] | Activity (Mus musculus [16]) | EC50 [17] [nM] | half-life at 10 µM [18] [min] | Activity (Mus musculus [19]) | also measured
N=C(N)NCCC[C@H](NC(=O)[C@H](CCC(N)=O)NC(=O)[C@@H]1CCCN1C(=O)[C@@H](CS)NC(=O)[C@H](Cc1ccccc1)NC(=O)CNC(=O)[C@H](CS)NC(=O)[C@@H](N)Cc1ccc(O)cc1)C(=O)N[C@@H](Cc1ccccc1)C(N)=O | 75.1 | 0.1 | Active | 178 | 50.4 | 55.1 | 31.4 | 81.8 | 216 | 3 | 6.42 | 199 | 3 | Active | 697 | – | – | EC50 ([1]; read-out: pEC50 (converted)): 74.1 nM; Activity (Mus musculus [11]): inactive; Activity (Mus musculus [12]): inactive; Activity (Mus musculus [14]): Active
N=C(N)NCCC[C@H](NC(=O)[C@H](CCC(N)=O)NC(=O)[C@@H]1CCCN1C(=O)[C@H]1CSSC[C@H](NC(=O)[C@@H](N)Cc2ccc(O)cc2)C(=O)NCC(=O)N[C@@H](Cc2ccccc2)C(=O)N1)C(=O)N[C@@H](Cc1ccccc1)C(N)=O | 743 | 0.003 | Active | 3830 | 60.3 | 61.6 | 17 | 82.8 | 354 | 4 | 0.21 | 490 | 3 | Active | 168 | 229 | Active | –
CN1CC[C@]23c4c5ccc(O)c4O[C@H]2[C@@H](O[C@@H]2O[C@H](C(=O)O)[C@@H](O)[C@H](O)[C@H]2O)C=C[C@H]3[C@H]1C5 [MORPHINE GLUCURONIDE] | – | – | – | – | – | – | – | – | – | – | – | – | – | – | – | – | – | Kp [20]: 0.05
CN1CC[C@]23c4c5ccc(O)c4O[C@H]2[C@@H](O)C=C[C@H]3[C@H]1C5 [MORPHINE] | – | – | – | – | – | – | – | – | – | – | – | – | – | – | – | – | – | Kp [20]: 0.74
N=C(N)NCCC[C@H](NC(=O)[C@H](CCC(N)=O)NC(=O)[C@@H]1CCCN1C(=O)[C@@H](CS)NC(=O)[C@H](Cc1ccccc1)NC(=O)CNC(=O)[C@@H](CS)NC(=O)[C@@H](N)Cc1ccc(O)cc1)C(=O)N[C@@H](Cc1ccccc1)C(N)=O | 2300 | 0.06 | Active | 171 | 58.3 | 58.4 | 30.9 | 85.7 | 788 | 3 | 1.13 | 219 | 3 | Active | 719 | – | – | –
N=C(N)NCCC[C@H](NC(=O)[C@H](CCC(N)=O)NC(=O)[C@@H]1CCCN1C(=O)[C@@H]1CSSC[C@H](NC(=O)[C@@H](N)Cc2ccc(O)cc2)C(=O)NCC(=O)N[C@@H](Cc2ccccc2)C(=O)N1)C(=O)N[C@@H](Cc1ccccc1)C(N)=O | 307 | 0.18 | Active | 788 | 63.6 | 79.6 | 28.9 | 80.2 | 32.5 | 1.5 | 182 | 162 | – | Active | 120 | 58 | Active | –
N=C(N)NCCC[C@H](NC(=O)[C@H](CCC(N)=O)NC(=O)[C@@H]1CCCN1C(=O)[C@H](CS)NC(=O)[C@H](Cc1ccccc1)NC(=O)CNC(=O)[C@H](CS)NC(=O)[C@@H](N)Cc1ccc(O)cc1)C(=O)N[C@@H](Cc1ccccc1)C(N)=O | 184 | 0.24 | Active | 1550 | – | 62.9 | 29.6 | 79.7 | 24.9 | 1.5 | 150 | 218 | – | Active | 752 | – | – | Emax [4]: 35.8%; Activity (Mus musculus [11]): inactive; Activity (Mus musculus [12]): inactive; Activity (Mus musculus [14]): Active
N=C(N)NCCC[C@H](NC(=O)[C@H](CCC(N)=O)NC(=O)[C@@H]1CCCN1C(=O)[C@H]1CSSC[C@@H](NC(=O)[C@@H](N)Cc2ccc(O)cc2)C(=O)NCC(=O)N[C@@H](Cc2ccccc2)C(=O)N1)C(=O)N[C@@H](Cc1ccccc1)C(N)=O | 2460 | 0.002 | Active | 196 | 63.6 | 74.6 | 14.6 | 75.6 | 361 | 4 | 0.001 | 200 | 3 | Active | 192 | 255 | Active | Activity (Mus musculus [2]): Dose-dependent effect; Activity [21]: Dose-dependent effect; ED50 [21]: 0.07 µmol/kg; Activity [22]: Toxic; Activity [23]: Non-Toxic; Activity [24]: Non-Toxic; Activity [25]: Non-Toxic; Activity (Mus musculus [26]): 80%; MPE (Mus musculus [27]): 90%; Activity [28]: Non-Toxic; Activity (Mus musculus [15]): Dose-dependent effect; selectivity ratio [29]: 35
C[C@@H](NC(=O)[C@@H](N)Cc1ccc(O)cc1)C(=O)NCC(=O)N[C@@H](Cc1ccccc1)C(=O)N[C@@H](CCC(N)=O)C(=O)N1CCC[C@H]1C(=O)N[C@@H](CCC(N)=O)C(=O)N[C@@H](CCCNC(=N)N)C(=O)N[C@@H](Cc1ccccc1)C(N)=O (H-Y[dA]GFQPQRF-NH2) | – | 1.37 | Active | – | – | – | – | – | – | – | 390 | – | – | Active | – | – | – | –
